Results: patent US8895562B2, “Piperazin-1-yl-trifluoromethyl-substituted-pyridines as fast dissociating dopamine 2 receptor antagonists” (Janssen Pharmaceutica NV, priority 2008, dated 2014)
pIC50: −log10 of the molar value. Where a name gives a salt, the structure may show the parent alone. Read-outs that look alike come from different tables or passages of the source.

How the values were obtained:
[1] = molecular target: T1, human Dopamine D2L receptor (Homo sapiens, UniProt P14416); assay: In vitro binding affinity for human D2L receptor ([3H]spiperone); settings: membranes of human D2L receptor-transfected CHO cells, read-out: D2L binding pIC50 (converted)
T1 construct: expressed in transfected cells; host or cells: CHO cells (membranes)
T1 sequence (P14416 whole entry): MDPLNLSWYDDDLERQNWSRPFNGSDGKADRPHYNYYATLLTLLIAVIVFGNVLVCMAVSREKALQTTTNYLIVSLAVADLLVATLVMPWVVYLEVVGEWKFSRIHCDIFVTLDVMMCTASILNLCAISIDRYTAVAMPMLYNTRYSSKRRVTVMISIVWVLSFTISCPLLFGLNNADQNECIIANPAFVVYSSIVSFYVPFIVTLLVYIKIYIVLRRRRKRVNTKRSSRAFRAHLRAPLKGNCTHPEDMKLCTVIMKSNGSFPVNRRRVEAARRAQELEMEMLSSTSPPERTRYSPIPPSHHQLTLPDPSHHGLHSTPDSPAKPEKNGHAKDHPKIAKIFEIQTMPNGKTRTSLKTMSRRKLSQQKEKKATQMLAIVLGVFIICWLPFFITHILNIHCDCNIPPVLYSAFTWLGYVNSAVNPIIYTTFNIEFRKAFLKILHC
Text: In order to find antipsychotic compounds active against positive and negative symptoms and cognitive impairment, and having an improved safety profile (low EPS incidence and no metabolic disorders), we have screened for compounds selectively interacting with the dopamine D2 receptor and dissociating fast from this receptor, and further having affinity for the dopamine D3 receptor as well as the serotonin 5-HT-6 receptor. Compounds were first screened for their D2 affinity in a binding assay using [^3H]spiperone and human D2L receptor cell membranes.
Frozen membranes of human Dopamine D2L receptor-transfected CHO cells were thawed, briefly homogenised using an Ultra-Turrax T25 homogeniser and diluted in Tris-HCl assay buffer containing NaCl, CaCl2, MgCl2, KCl (50, 120, 2, 1, and 5 mM respectively, adjusted to pH 7.7 with HCl) to an appropriate protein concentration optimised for specific and non-specific binding. Radioligand [^3H]Spiperone (NEN, specific activity ˜70 Ci/mmol) was diluted in assay buffer at a concentration of 2 nmol/L. Prepared radioligand (50 μl), along with 50 μl of either the 10% DMSO control, Butaclamol (10^−6 mol/l final concentration), or compound of interest, was then incubated (30 min, 37° C.) with 400 μl of the prepared membrane solution. Membrane-bound activity was filtered through a Packard Filtermate harvester onto GF/B Unifilterplates and washed with ice-cold Tris-HCl buffer (50 mM; pH 7.7; 6×0.5 ml). Filters were allowed to dry before adding scintillation fluid and counting in a Topcount scintillation counter. Percentage specific bound and competition binding curves were calculated using S-Plus software (Insightful).

[2] = molecular target: T2, human Serotonin 5HT6 receptor (Homo sapiens, UniProt P50406); assay: In vitro binding affinity for human 5HT6 receptor ([3H]LSD); settings: for IC50: membranes of human 5HT6 receptor-transfected HEK cells, [3H]lysergic acid diethylamide, read-out: 5-HT6 binding pIC50 (converted)
T2 construct: expressed in transfected cells; host or cells: HEK cells (membranes)
T2 sequence (P50406 whole entry): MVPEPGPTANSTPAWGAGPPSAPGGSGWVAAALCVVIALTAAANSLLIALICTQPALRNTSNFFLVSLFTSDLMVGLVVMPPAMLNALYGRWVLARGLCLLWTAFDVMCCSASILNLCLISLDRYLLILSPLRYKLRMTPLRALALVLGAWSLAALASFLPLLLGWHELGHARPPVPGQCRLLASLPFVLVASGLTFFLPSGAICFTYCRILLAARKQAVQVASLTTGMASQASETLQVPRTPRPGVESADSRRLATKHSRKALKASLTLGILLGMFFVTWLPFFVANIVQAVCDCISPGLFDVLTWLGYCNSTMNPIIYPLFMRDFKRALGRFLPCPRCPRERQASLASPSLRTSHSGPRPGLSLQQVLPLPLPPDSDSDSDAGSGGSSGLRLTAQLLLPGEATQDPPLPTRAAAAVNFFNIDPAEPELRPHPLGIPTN
Protocol: Frozen membranes of human Serotonin 5HT6 receptor-transfected HEK cells were thawed, briefly homogenized using an Ultra-Turrax T25 homogeniser and diluted in 50 mM Tris-HCl assay buffer containing 10 mM MgCl2, 1 mM EDTA and 10 μM Pargyline (adjusted to pH 7.4 with HCl) to an appropriate protein concentration optimized for specific and non-specific binding. Radioligand [^3H]Lysergic acid diethylamide (Perkin Elmer, specific activity ˜80 Ci/mmol) was diluted in assay buffer at a concentration of 20 nM. Radioligand (20 μl), along with 40 μl of either the 10% DMSO control, Methiothepine (10^−5M final concentration), or compound of interest, was then incubated with 70 μl of the prepared membrane solution and 70 μl of WGA coated PVT beads (0.25 mg/well final concentration). After shaking for 24 hours at RT plates were counted in a Topcount™ scintillation counter. Percentage specific binding and competition binding curves were calculated using S-Plus software (Insightful).

human D2L receptor = molecular target: T3, human D2L receptor (Homo sapiens, UniProt P14416); assay: Fast dissociation, indirect assay ([3H]spiperone binding after pre-incubation with compound); settings: compound at 4 times its IC50, 1 h pre-incubation at 25° C., then 5 min with 1 nM [3H]spiperone on filter
T3 construct: expressed in transfected cells
T3 sequence (P14416 whole entry): as the sequence (P14416 whole entry) above
Protocol: Compounds were first screened for their D2 affinity in a binding assay using [^3H]spiperone and human D2L receptor cell membranes.
Compounds at a concentration of 4 times their IC50 were first incubated for one hour with human D2L receptor cell membranes in a volume of 2 ml at 25° C., then filtered over glass-fibre filter under suction using a 40 well multividor. Immediately after, the vacuum was released. 0.4 ml of pre-warmed buffer (25° C.) containing 1 nM [^3H]spiperone was added on the filter for 5 minutes. The incubation was stopped by initiating the vacuum and immediate rinsing with 2×5 ml of ice-cold buffer. The filter-bound radioactivity was measured in a liquid scintillation spectrometer. The principle of the assay is based on the assumption that the faster a compound dissociates from the D2 receptor, the faster [^3H]spiperone binds to the D2 receptor.

[3] = molecular target: T4, human Dopamine D3 receptor (Homo sapiens, UniProt P35462); assay: In vitro binding affinity for human D3 receptor ([125I]iodosulpride); settings: for IC50: membranes of human D3 receptor-transfected CHO cells, [125I]iodosulpride, read-out: D3 binding pIC50 (converted)
T4 construct: expressed in transfected cells; host or cells: CHO cells (membranes)
T4 sequence (P35462 whole entry): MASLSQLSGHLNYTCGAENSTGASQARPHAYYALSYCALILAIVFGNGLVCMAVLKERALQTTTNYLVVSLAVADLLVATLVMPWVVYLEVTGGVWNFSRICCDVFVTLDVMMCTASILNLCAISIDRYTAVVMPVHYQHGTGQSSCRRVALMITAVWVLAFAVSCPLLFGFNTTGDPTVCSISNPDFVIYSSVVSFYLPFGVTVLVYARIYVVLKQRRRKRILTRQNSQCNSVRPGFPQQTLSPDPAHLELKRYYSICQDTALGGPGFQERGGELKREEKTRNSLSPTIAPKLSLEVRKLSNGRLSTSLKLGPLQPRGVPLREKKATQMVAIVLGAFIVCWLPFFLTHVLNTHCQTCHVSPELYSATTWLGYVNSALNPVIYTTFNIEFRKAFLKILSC
Protocol: Frozen membranes of human Dopamine D3 receptor-transfected CHO cells were thawed, briefly homogenized using an Ultra-Turrax T25 homogeniser and diluted in 50 mM Tris-HCl assay buffer containing 120 mM NaCl, 2 mM CaCl2, 1 mM MgCl2, 5 mM KCl and 0.1% BSA (adjusted to pH 7.4 with HCl) to an appropriate protein concentration optimized for specific and non-specific binding. Radioligand [^125I]Iodosulpride (Amersham, specific activity ˜2000 Ci/mmol) was diluted in assay buffer at a concentration of 2 nM. Prepared radioligand (20 μl), along with 40 μl of either the 10% DMSO control, Risperidone (10^−6M final concentration), or compound of interest, was then incubated with 70 μl of the prepared membrane solution and 70 μl of WGA coated PVT beads (0.25 mg/well final concentration). After shaking for 24 hours at RT plates were counted in a Topcount™ scintillation counter. Percentage specific binding and competition binding curves were calculated using S-Plus software (Insightful).

SMILES | IC50 [1] [nM] | IC50 [2] [nM] | melting point [°C] | D2 dissociation ([3H]spiperone binding as % of total binding capacity) (human D2L receptor) [%] | pIC50 [2] | pIC50 [3] | IC50 [3] [nM]
Fc1ccc(-c2cc(N3CCNCC3)ncc2C(F)(F)F)cc1 [Example B1, 1-[4-(4-Fluoro-phenyl)-5-trifluoromethyl-pyridin-2-yl]-piperazine] | 3890 | 123 | 80.6 | – | – | – | –
COc1nc(N2CCNCC2)cc(-c2ccccc2)c1C(F)(F)F [Example B3, 1-(6-Methoxy-4-phenyl-5-trifluoromethyl-pyridin-2-yl)-piperazine] | 229 | – | – | 45 | 7.73 | 7.33 | –
COc1nc(C(F)(F)F)c(-c2ccccc2)cc1N1CCNCC1 [Example B5, 1-(2-Methoxy-5-phenyl-6-trifluoromethyl-pyridin-3-yl)-piperazine] | 204 | 93.3 | – | 66 | – | – | –
N#Cc1nc(N2CCNCC2)cc(-c2ccccc2)c1C(F)(F)F [Example B2, 4-Phenyl-6-piperazin-1-yl-3-trifluoromethyl-pyridine-2-carbonitrile] | 129 | 8.13 | – | 60 | – | – | 10.7
COc1nc(C(F)(F)F)c(-c2ccccc2)cc1N1CCNCC1 (as salt: salt) [Example B5, 1-(2-Methoxy-5-phenyl-6-trifluoromethyl-pyridin-3-yl)-piperazine] | – | – | 184.8 | – | – | – | –
FC(F)(F)c1ncc(N2CCNCC2)cc1-c1ccccc1 [Example B4, 1-(5-Phenyl-6-trifluoromethyl-pyridin-3-yl)-piperazine] | 479 | 138 | – | 69 | – | 7.47 | –
COc1nc(C(F)(F)F)c(-c2ccc(F)cc2)cc1N1CCNCC1 [Example B6, 1-[5-(4-Fluoro-phenyl)-2-methoxy-6-trifluoromethyl-pyridin-3-yl]-piperazine] | 468 | 129 | – | – | – | – | –
Cc1nc(C(F)(F)F)c(-c2ccccc2)cc1N1CCNCC1 [Example B8, 1-(2-Methyl-5-phenyl-6-trifluoromethyl-pyridin-3-yl)-piperazine] | 4790 | 170 | – | 95 | – | – | 2090
N#Cc1nc(N2CCNCC2)cc(-c2ccccc2)c1C(F)(F)F (as salt: salt) [Example B2, 4-Phenyl-6-piperazin-1-yl-3-trifluoromethyl-pyridine-2-carbonitrile] | – | – | 255.3 | – | – | – | –
N#Cc1nc(C(F)(F)F)c(-c2ccccc2)cc1N1CCNCC1 [Example B7, 5-Phenyl-3-piperazin-1-yl-6-trifluoromethyl-pyridine-2-carbonitrile] | 3390 | 309 | – | – | – | – | 372
COc1nc(C(F)(F)F)c(-c2ccc(F)cc2)cc1N1CCN(C(=O)OC(C)(C)C)CC1 [Example A16, 4-[5-(4-Fluoro-phenyl)-2-methoxy-6-trifluoromethyl-pyridin-3-yl]-piperazine-1-carboxylic acid tert-butyl ester] | 7940 | 224 | – | 83 | – | – | 2090
